Measured values taken from the supplement of paper PMC10307832.

Compound: Cn1nnc2c(C(N)=O)ncn2c1=O [Temozolomide] + N=C(N)NC(=N)NCCc1ccccc1 [Phenformin] (partner 250 µM)
Test: relative viability (nuclei count vs DMSO), 5 days (fraction); higher = more cells survive
Details: first compound 0.2 µM
In short: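 A single step with final 0.05% Triton X-100, 1% formaldehyde and 1 ug/ml Hoechst fixed the cells and stained nuclei 5 days after treatment. Lung cancer cell lines in 1536-well plates had been treated by pin tool the day after seeding with one drug alone or a fixed anchor-drug dose plus five library-drug doses (not always all listed) in √10 steps, and nuclei were counted on 4× images. Relative viability is the ratio of nuclei in treated wells to nuclei in vehicle wells, taken as the median of duplicate plates.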

Cell Line | relative viability
HCC-44 | 0.194
HCC-78 | 0.701
HCC-366 | 0.639
HCC-827 | 0.248
HOP-62 | 0.939
LC-2-ad | 0.609
LCLC-97TM1 | 0.427
LCLC-103H | 0.36
LK-2 | 0.502
LOU-NH91 | 0.612
LU99A | 0.983
LXF-289 | 0.553
NCI-H23 | 0.868
NCI-H358 | 0.21
NCI-H441 | 1.07
NCI-H460 | 0.52
NCI-H520 | 0.589

Cell Line | relative viability
NCI-H522 | 0.653
NCI-H647 | 0.624
NCI-H650 | 0.547
NCI-H661 | 0.252
NCI-H727 | 0.653
NCI-H838 | 0.63
NCI-H1355 | 0.499
NCI-H1395 | 0.458
NCI-H1437 | 0.346
NCI-H1650 | 0.458
NCI-H1651 | 0.388
NCI-H1666 | 0.575
NCI-H1734 | 0.474
NCI-H1755 | 0.68
NCI-H1792 | 0.61
NCI-H1915 | 0.393
NCI-H1944 | 0.219

Same assay, conditions: first compound 0.6325 µM

Cell Line | relative viability
HCC-44 | 0.238
HCC-78 | 0.755
HCC-366 | 0.647
HCC-827 | 0.443
HOP-62 | 0.642
LC-2-ad | 0.651
LCLC-97TM1 | 0.487
LCLC-103H | 0.365
LK-2 | 0.568
LOU-NH91 | 0.74
LU99A | 0.8
LXF-289 | 0.53
NCI-H23 | 0.853
NCI-H322M | 0.821
NCI-H358 | 0.425
NCI-H441 | 0.892
NCI-H460 | 0.54
NCI-H520 | 0.548

Cell Line | relative viability
NCI-H522 | 0.664
NCI-H647 | 0.626
NCI-H650 | 0.443
NCI-H661 | 0.277
NCI-H727 | 0.659
NCI-H838 | 0.616
NCI-H1355 | 0.517
NCI-H1395 | 0.428
NCI-H1437 | 0.348
NCI-H1650 | 0.468
NCI-H1651 | 0.332
NCI-H1666 | 0.584
NCI-H1734 | 0.454
NCI-H1755 | 0.598
NCI-H1792 | 0.352
NCI-H1793 | 0.359
NCI-H1915 | 0.385
NCI-H1944 | 0.183

Same assay, conditions: first compound 2 µM

Cell Line | relative viability
HCC-44 | 0.17
HCC-78 | 0.713
HCC-366 | 0.631
HCC-827 | 0.397
